From US9845327B2, “Treatment of proteinopathies” (THE GENERAL HOSPITAL CORPORATION, priority 2011, dated 2017)

B1: GCase polypeptide: myc-tagged GCase polypeptide expression construct transfected into Hela cells (protein, UniProt P04062 40-536, looked up)
Lysosomal acid …: ARPCIPKSFGYSSVVCVCNATYCDSFDPPTFPALGTFSRYESTRSGRRMELSMGPIQANHTGTGLLLTLQPEQKFQKVKGFGGAMTDAAALNILALSPPAQNLLLKSYFSEEGIGYNIIRVPMASCDFSIRTYTYADTPDDFQLHNFSLPEEDTKLKIPLIHRALQLAQRPVSLLASPWTSPTWLKTNGAVNGKGSLKGQPGDIYHQTWARYFVKFLDAYAEHKLQFWAVTAENEPSAGLLSGYPFQCLGFTPEHQRDFIARDLGPTLANSTHHNVRLLMLDDQRLLLPHWAKVVLTDPEAAKYVHGIAVHWYLDFLAPAKATLGETHRLFPNTMLFASEACVGSKFWEQSVRLGSWDRGMQYSHSIITNLLYHVVGWTDWNLALNPEGGPNWVRNFVDSPIIVDITKDTFYKQPMFYHLGHFSKFIPEGSQRVGLVASQKNDLDAVALMHPDGSAVVVVLNRSSKDVPLTIKDPAVGFLETISPGYSIHTYLWRRQ
modifications: myc tag
notes: myc-tagged GCase polypeptide expression construct transfected into Hela cells

Tests used:
primary cortical neurons [1] = assay: Neurotoxicity assessment (neurofilament immunostaining, neuronal volume) in primary cortical neurons expressing human WT α-synuclein; type: cell-based
α-synuclein [2] = assay: α-synuclein solubility and oligomers (sequential extraction/western blot, native SEC, immunostaining) in primary cortical neurons; type: cell-based
Experimental: (§1) As discussed above, the increased α-synuclein levels and toxicity that occur with GCase polypeptide depletion may result from generalized lysosomal inhibition or may be due to alterations in GlcCer lipid metabolism. To distinguish between these two possibilities, in this Example, the lysosomal protein degradation was inhibited with leupeptin in WT α-synuclein-expressing neurons and the neurotoxicity was assessed. […] Thus, despite similar effects on the total α-synuclein levels by leupeptin or GCase polypeptide KD, only GCase polypeptide KD increased the steady-state levels of soluble HMW α-synuclein. In this Example, sequential extraction followed by SDS-PAGE/Coomassie brilliant blue (CBB) staining was used to determine the effect of leupeptin treatment on the solubility of total cellular proteins.
(§2) Cells were harvested in Triton X-100 lysis buffer. The extracts were centrifuged at 100,000×g for 30 min. The pellets were extracted in 2% SDS buffer. Similar procedures were utilized for mouse and human brain tissues, using 20 volumes of Triton X-100 lysis buffer. Samples were loaded onto SDS-PAGE gels or subjected to native SEC followed by western blot analysis as described below (Mazzulli et al., J. Neurosci. 26:10068, 2006).
Infected cortical cells (8,000,000 cells/10 cm plate) were harvested in Triton X-100 lysis buffer and 100,000×g Triton X-100 soluble lysate was loaded onto a Superdex 200 HR 10/300 column (GE healthcare) as described previously (Mazzulli et al., J. Neurosci. 26:10068, 2006). Quantification of α-synuclein oligomers has been described in detail previously (Tsika et al., J. Neurosci. 30: 3409, 2010).
Cortical cells grown on poly-D-lysine coated coverslips in 12 well clusters were washed very briefly in warm PBS followed by rapid fixation in PBS-buffered 4% paraformaldehyde (w/v) for 15 min. Cells were incubated with PBS containing 0.3% (v/v) Triton X-100 overnight at 4° C., then blocked in 2% (w/v) bovine serum albumin (BSA) (Sigma-Aldrich, # A-7906) and 10% normal goat serum (Jackson Immunoresearch Laboratories, #005-000-121) in PBS-Triton X-100 for 1 hr. Primary antibodies were diluted into blocking buffer (see above for dilutions), incubated overnight at 4° C., and washed extensively in PBS-Triton X-100. […] Coverslips were mounted onto glass slides with 10 μl of 4,6-diamidino-2-phenylindole dihydrochloride (DAPI)-containing Fluoromount G (Southern Biotech, #0100-20) and visualized with a fluorescence microscope. For quantification of α-synuclein and LC3 immunostaining, pixels from equal-time exposed images were quantified using Adobe Photoshop software CS2 (Adobe Systems), and normalized to DAPI.

total cellular proteins = assay: Total cellular protein solubility by sequential extraction, SDS-PAGE and Coomassie brilliant blue staining; type: cell-based, mouse; details: leupeptin treatment
Experimental: as §1, §2

LC3-II = LC3-II western blot in primary cortical neurons; type: cell-based, mouse; details: leupeptin compared with GCase polypeptide KD
Experimental: as §1
Most materials for SDS-PAGE were obtained from Invitrogen (NuPAGE system). […] Blots were blocked in Odyssey blocking buffer (Li-Cor biosciences) containing 0.05% Tween, or 5% non-fat dry milk in TBS-T 0.2%, followed by incubation with primary antibodies (see above for dilutions), and detected with anti-mouse or -rabbit IgG conjugated to IRDye 680 or 800 (1:10,000, Li-Cor biosciences). […] Any nonspecific bands detected were not included in densitometric analyses. […]

[3] = test system: α-synuclein/LAMP1 colocalized puncta; assay: Immunostaining of α-synuclein and LAMP1, condensed nuclei count in primary neurons; type: cell-based
Experimental: Next in this Example, the effect of GlcCer on α-synuclein fibril formation was assessed under acidic conditions (pH 5.0, 37° C.), to simulate a lysosome-like environment in vitro because the neuronal culture data had indicated increased colocalization of α-synuclein with LAMP1 upon GCase polypeptide KD (FIGS. 5H and 5I). […] An increased frequency of condensed nuclei in WT α-synuclein/GC-depleted cells, compared to WT α-synuclein/scrb shRNA cells (panel H), was consistent with a decline in neuronal viability. […] The α-synuclein detected in P2 was in the form of a T-sol 18 kDa monomer (panel I, left), as well as T-insoluble monomer and multimers (panel I, right).
Cortical cells grown on poly-D-lysine coated coverslips in 12 well clusters were washed very briefly in warm PBS followed by rapid fixation in PBS-buffered 4% paraformaldehyde (w/v) for 15 min. […] Coverslips were mounted onto glass slides with 10 μl of 4,6-diamidino-2-phenylindole dihydrochloride (DAPI)-containing Fluoromount G (Southern Biotech, #0100-20) and visualized with a fluorescence microscope. For quantification of α-synuclein and LC3 immunostaining, pixels from equal-time exposed images were quantified using Adobe Photoshop software CS2 (Adobe Systems), and normalized to DAPI.

primary cortical neurons [4] = assay: Proteolysis of long-lived proteins by radioactive pulse-chase in primary cortical neurons; type: cell-based, mouse; details: added to GCase polypeptide KD
Experimental: In this Example, a test was conducted to determine whether GCase polypeptide KD affects a lysosomal degradation pathway. In this test, neurons were treated with the well-established lysosomal inhibitors ammonium chloride (NH4Cl) and leupeptin.
Proteolysis of long-lived proteins was determined by radioactive pulse-chase using ^3H-leucine. This procedure was performed as described previously (Kaushik et al. Methods Enzymol. 452: 297, 2009). Briefly, cortical cells were grown in 24 well clusters seeded at 33000 cells/well and infected at moi 3 with scrb or GCase polypeptide shRNA expressing lentiviral vectors. On dpi 4, ^3H-leucine (PerkinElmer, # NET460A001 MC, final 5 μCi/ml) was added in standard neurobasal medium containing B27 for 2 days to trace label proteins. […] Samples were centrifuged at 20,000×g for 20 min, 4° C., and the radioactivity was measured in 5 ml of scintillation cocktail using a Beckman LS 1701 liquid scintillation counter (Beckman Instruments). Precipitated protein pellets were extracted in 200 μl of Na deoxycholate, 0.1 M NaOH, and radioactivity was determined. Percent proteolysis was calculated as described in detail elsewhere (Kaushik et al. Methods Enzymol. 452: 297, 2009). […]

Hela cells = assay: Lysosomal proteolysis by radioactive pulse-chase in transfected Hela cells; type: cell-based
Experimental: (§3) Further in this Example, it was assessed whether GCase polypeptide overexpression had the ability to directly enhance lysosomal proteolysis in a non-neuronal cell line. Hela cells were transfected with a myc-tagged GCase polypeptide expression construct and lysosomal proteolysis was assessed by radioactive pulse-chase (FIG. 17A). […] This effect was also confirmed through a different assay, by measuring the effect of GCase polypeptide overexpression on the activity of the lysosomal protease cathepsin B. A cell-permeable fluorescent-tagged cathepsin B substrate (MAGIC RED cathepsin detection kit, Immunochemistry Technologies) was added to transfected Hela cells, and degradation of this substrate was determined in living cells after substrate wash-out.

α-synuclein [5] = assay: α-synuclein levels by western blot in human midbrain iPS dopamine neurons; type: cell-based; details: lentiviral overexpression, moi 5, human PD dopamine neurons (Coriell line ND27760, SNCA triplication)
Excerpt: In this Example, it was investigated whether enhancement of lysosomal enzyme trafficking through stimulation of the secretory pathway would result in increased lysosomal function and reduction of α-synuclein. Therefore, in this Example the small GTPase Rab1a polypeptide was overexpressed by lentiviral infection in iPS neurons to stimulate enzyme trafficking. Rab1a polypeptide has been established to function specifically at the ER-Golgi step of the secretory pathway (Duvernay et al., Cell Signal 17: 1457, 2005). The effect of Rab1a polypeptide was determined in human iPS dopamine neurons derived from reprogrammed fibroblasts of a PD patient (Coriell line ND27760). These cells harbor a triplication mutation in the genomic region containing SNCA which encodes for α-synuclein, leading to overexpression of the protein and lysosomal trafficking deficits. […] Further in this Example, it was determined if Rab1a polypeptide enhances lysosomal function by monitoring cathepsin B activity.
It was also shown in this Example that treatment with the GCase polypeptide activator increased the levels of total GCase protein and increased the post-ER forms, indicating enhancement of flux to the lysosome (FIG. 19B).
Most materials for SDS-PAGE were obtained from Invitrogen (NuPAGE system). Protein lysates were boiled in sample buffer (20 mM Tris, 1% (v/v) glycerol, 180 mM β-mercaptoethanol, 0.003% (w/v) bromophenol blue, 2% (w/v) SDS, pH 6.8), resolved on 4%-12% Bis-Tris polyacrylamide precast gels in a MOPS-SDS running buffer, or 4%-12% Tris-Glycine gels. 10% Tris-Glycine gels were utilized for some GCase polypeptide western blot's (FIGS. 13B, 13D, and 13E, and FIGS. 14C and 14F). […] Blots were blocked in Odyssey blocking buffer (Li-Cor biosciences) containing 0.05% Tween, or 5% non-fat dry milk in TBS-T 0.2%, followed by incubation with primary antibodies (see above for dilutions), and detected with anti-mouse or -rabbit IgG conjugated to IRDye 680 or 800 (1:10,000, Li-Cor biosciences). […] Any nonspecific bands detected were not included in densitometric analyses. […]

cathepsin B = assay: Cathepsin B activity in living transfected Hela cells (fluorescent substrate); type: cell-based; details: overexpression in transfected Hela cells, versus GFP
Experimental: as §3
In this Example, it was investigated whether enhancement of lysosomal enzyme trafficking through stimulation of the secretory pathway would result in increased lysosomal function and reduction of α-synuclein. Therefore, in this Example the small GTPase Rab1a polypeptide was overexpressed by lentiviral infection in iPS neurons to stimulate enzyme trafficking. […] The effect of Rab1a polypeptide was determined in human iPS dopamine neurons derived from reprogrammed fibroblasts of a PD patient (Coriell line ND27760). […] Further in this Example, it was determined if Rab1a polypeptide enhances lysosomal function by monitoring cathepsin B activity.

[6] = leupeptin-treated WT α-synuclein-expressing neurons

Molecule | neurotoxicity at later time points (primary cortical neurons [1]; >12 dpi) | α-synuclein-mediated neurotoxicity (primary cortical neurons [1]; WT α-synuclein-expressing neurons, 50 μM leupeptin, 7 dpi) | T-insoluble α-synuclein (α-synuclein [2]; [6]) | amount of soluble α-synuclein (α-synuclein [2]; [6]) | total α-synuclein immunostaining intensity (α-synuclein [2]; leupeptin-treated compared to control cells) | soluble HMW α-synuclein by SEC (α-synuclein [2]; leupeptin-treated neurons) | levels of total insoluble proteins, fold increase (total cellular proteins) [fold] | levels of LC3-II (LC3-II) | percentage of cells with condensed nuclei compared to untreated control cells ([3]; 7 dpi) | percentage of cells containing α-synuclein/LAMP1 colocalized puncta ([3]; leupeptin-treated cells) [%] | proteolysis of long-lived proteins in GCase polypeptide shRNA-treated cells (primary cortical neurons [4]) | effect of lysosomal inhibitors on the proteolysis increase by GCase polypeptide overexpression (Hela cells) | α-synuclein levels (α-synuclein [5]) | cathepsin B activity (cathepsin B) | increase in proteolysis compared to GFP control transfected cells (Hela cells; myc-tagged GCase polypeptide expression construct) [%]
CC(=O)N[C@@H](CC(C)C)C(=O)N[C@@H](CC(C)C)C(=O)N[C@H](C=O)CCCNC(=N)N [leupeptin] | did result in neurotoxicity | did not enhance | increase | no change | increase | not detectable | ~2 | comparable increase | did not alter | ~90 | did not additively inhibit | completely reversed |  |  | 
Rab1a polypeptide: small GTPase overexpressed by lentiviral infection or transfection; SEQ ID NO. 13 |  |  |  |  |  |  |  |  |  |  |  |  | dramatic reduction | increase | 
B1 |  |  |  |  |  |  |  |  |  |  |  |  |  | increased | 40
